Legend:
[1] = tested on: ECHORC (Watergrass (Calif.)); experiment: Postemergence weed control under flooded paddy conditions; assay type: in vivo, Echinochloa oryzoides; details: postemergence weeds
Procedure, shortened: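 Weeds 3 to 5 cm tall and rice seedlings at the 1.5 to 2.5 leaf stage were flooded, with water held 1.5 to 3 cm above the soil. Compounds in 50/50 v/v aqueous/acetone went into the flood water at about 0.0313 to 0.500 kg/ha. Visual 0-9 ratings versus control were made 3 to 4 weeks later.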

AMBEL (Ragweed, Common) [2] = experiment: Preemergence herbicidal evaluation; assay type: in vivo, Ambrosia artemisifolia; details: rated 4-5 weeks after treatment
Procedure, shortened: (§1)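 Greenhouse preemergence test: seed-soil mix sown on ~1 inch soil; aqueous acetone spray at equivalent of ~0.0156–0.500 kg/ha; greenhouse-held and watered; scored 0–9 visually at 4–5 weeks.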

ABUTH (Velvetleaf) = experiment: Preemergence herbicidal evaluation; assay type: in vivo, Abutilon theophrasti; details: rated 4-5 weeks after treatment
Procedure, shortened: as §1

AMBEL (Ragweed, Common) [3] = experiment: Postemergence herbicidal evaluation; assay type: in vivo, Ambrosia artemisifolia; details: for AMBEL herbicidal rating: postemergence
Procedure, shortened: (§2)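 Each compound, dispersed in an acetone/water mix (50/50) carrying 0.5% TWEEN 20, is nozzle-sprayed at 40 psi on approximately two-week-old seedlings at about 0.0156–0.500 kg/ha. Plants are assessed 4–5 weeks afterward on a 0–9 scale relative to control; duplicate tests are averaged.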

[4] = tested on: GLXMAW (Soybean, Williams); experiment: Preemergence herbicidal evaluation; assay type: in vivo, Glycine max, (L.) Merr. cv Williams; details: rated 4-5 weeks after treatment
Procedure, shortened: as §1

CYPSE (Flatsedge) = experiment: Preemergence weed control under flooded paddy conditions; assay type: in vivo, Cyperus serotinus; details: rated 3-4 weeks after treatment
Procedure, shortened: (§3)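 Values are visual 0-9 scores against a control for a preemergence application into paddy flood water at about 0.0313 to 0.500 kg/ha. Greenhouse duration was three to four weeks.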

[5] = tested on: IPOHE (Morningglory, Ivyleaf); experiment: Postemergence herbicidal evaluation; assay type: in vivo, Ipomoea hederacea; details: for IPOHE herbicidal rating: postemergence
Procedure, shortened: as §2

ECHCG (Barnyardgrass) = experiment: Preemergence herbicidal evaluation; assay type: in vivo, Echinochloa crus-galli; details: rated 4-5 weeks after treatment
Procedure, shortened: as §1

SETVI (Foxtail, Green) = experiment: Preemergence herbicidal evaluation; assay type: in vivo, Setaria viridis; details: rated 4-5 weeks after treatment
Procedure, shortened: as §1

[6] = tested on: GLXMAW (Soybean, Williams); experiment: Postemergence herbicidal evaluation; assay type: in vivo, Glycine max, (L.) Merr. cv Williams; details: for GLXMAW herbicidal rating: postemergence
Procedure, shortened: as §2

[7] = tested on: SAGPY (Arrowhead (Pygmaea)); experiment: Preemergence weed control under flooded paddy conditions; assay type: in vivo, Sagittaria pygmaea; details: rated 3-4 weeks after treatment
Procedure, shortened: as §3

CASOB (Sicklepod) = experiment: Preemergence herbicidal evaluation; assay type: in vivo, Cassia obtusifolia; details: rated 4-5 weeks after treatment
Procedure, shortened: as §1

ZEAMX (Corn, Field) = experiment: Postemergence herbicidal evaluation; assay type: in vivo, Zea mays; details: for ZEAMX herbicidal rating: postemergence
Procedure, shortened: as §2

GALAP (Galium) = experiment: Preemergence herbicidal evaluation; assay type: in vivo, Galium aparine; details: rated 4-5 weeks after treatment
Procedure, shortened: as §1

SMILES: C=CCOC(=O)CC1SC(=Nc2cc(-n3c(=O)cc(C(F)(F)F)n(C)c3=O)c(F)cc2Cl)N(CC=C)C1=O (stereo not drawn) [Compound 65, Allyl 3-allyl-2-{(2-chloro-5-[3,6-dihydro-3-methyl-2,6-dioxo-4-(trifluoromethyl)-1(2H)-pyrimidinyl]-4-fluorophenyl}imino}-4-oxo-5-thiazolidineacetate]
- Herbicidal rating ECHORC ([1]; Rate 0.0313 kg/ha, rated 3 to 4 weeks after treatment): 5.0
- Herbicidal rating ECHORC ([1]; Rate 0.0625 kg/ha, rated 3 to 4 weeks after treatment): 5.0
- Herbicidal rating ECHORC ([1]; Rate 0.1250 kg/ha, rated 3 to 4 weeks after treatment): 6.0
- Herbicidal rating ECHORC ([1]; Rate 0.2500 kg/ha, rated 3 to 4 weeks after treatment): 7.0
- Preemergence herbicidal rating AMBEL (AMBEL (Ragweed, Common) [2]; rate 0.0156 kg/ha): 1.0
- Preemergence herbicidal rating AMBEL (AMBEL (Ragweed, Common) [2]; rate 0.0313 kg/ha): 2.0
- Preemergence herbicidal rating AMBEL (AMBEL (Ragweed, Common) [2]; rate 0.0625 kg/ha): 4.0
- Preemergence herbicidal rating AMBEL (AMBEL (Ragweed, Common) [2]; rate 0.1250 kg/ha): 9.0
- Preemergence herbicidal rating AMBEL (AMBEL (Ragweed, Common) [2]; rate 0.2500 kg/ha): 9.0
- Preemergence herbicidal rating ABUTH (ABUTH (Velvetleaf); rate 0.0156 kg/ha): 2.0
- Preemergence herbicidal rating ABUTH (ABUTH (Velvetleaf); rate 0.0313 kg/ha): 9.0
- Preemergence herbicidal rating ABUTH (ABUTH (Velvetleaf); rate 0.0625 kg/ha): 9.0
- Preemergence herbicidal rating ABUTH (ABUTH (Velvetleaf); rate 0.1250 kg/ha): 9.0
- Preemergence herbicidal rating ABUTH (ABUTH (Velvetleaf); rate 0.2500 kg/ha): 9.0
- AMBEL herbicidal rating (AMBEL (Ragweed, Common) [3]; rate 0.0158 kg/ha): 9.0
- AMBEL herbicidal rating (AMBEL (Ragweed, Common) [3]; rate 0.0315 kg/ha): 7.0
- AMBEL herbicidal rating (AMBEL (Ragweed, Common) [3]; rate 0.0630 kg/ha): 9.0
- Preemergence herbicidal rating GLXMAW ([4]; rate 0.0156 kg/ha): 1.0
- Preemergence herbicidal rating GLXMAW ([4]; rate 0.0313 kg/ha): 0.0
- Preemergence herbicidal rating GLXMAW ([4]; rate 0.0625 kg/ha): 1.0
- Preemergence herbicidal rating GLXMAW ([4]; rate 0.1250 kg/ha): 2.0
- Preemergence herbicidal rating GLXMAW ([4]; rate 0.2500 kg/ha): 5.0
- CYPSE herbicidal effect rating (CYPSE (Flatsedge); 0.0313 kg/ha): 0.0
- CYPSE herbicidal effect rating (CYPSE (Flatsedge); 0.0625 kg/ha): 0.0
- CYPSE herbicidal effect rating (CYPSE (Flatsedge); 0.1250 kg/ha): 0.0
- CYPSE herbicidal effect rating (CYPSE (Flatsedge); 0.2500 kg/ha): 0.0
- IPOHE herbicidal rating ([5]; rate 0.0158 kg/ha): 9.0
- IPOHE herbicidal rating ([5]; rate 0.0315 kg/ha): 9.0
- IPOHE herbicidal rating ([5]; rate 0.0630 kg/ha): 9.0
- Preemergence herbicidal rating ECHCG (ECHCG (Barnyardgrass); rate 0.0156 kg/ha): 0.0
- Preemergence herbicidal rating ECHCG (ECHCG (Barnyardgrass); rate 0.0313 kg/ha): 0.0
- Preemergence herbicidal rating ECHCG (ECHCG (Barnyardgrass); rate 0.0625 kg/ha): 0.0
- Preemergence herbicidal rating ECHCG (ECHCG (Barnyardgrass); rate 0.1250 kg/ha): 2.0
- Preemergence herbicidal rating ECHCG (ECHCG (Barnyardgrass); rate 0.2500 kg/ha): 5.0
- Preemergence herbicidal rating SETVI (SETVI (Foxtail, Green); rate 0.0156 kg/ha): 0.0
- Preemergence herbicidal rating SETVI (SETVI (Foxtail, Green); rate 0.0313 kg/ha): 1.0
- Preemergence herbicidal rating SETVI (SETVI (Foxtail, Green); rate 0.0625 kg/ha): 2.0
- Preemergence herbicidal rating SETVI (SETVI (Foxtail, Green); rate 0.1250 kg/ha): 7.0
- Preemergence herbicidal rating SETVI (SETVI (Foxtail, Green); rate 0.2500 kg/ha): 9.0
- GLXMAW herbicidal rating ([6]; rate 0.0158 kg/ha): 7.5
- GLXMAW herbicidal rating ([6]; rate 0.0315 kg/ha): 8.0
- GLXMAW herbicidal rating ([6]; rate 0.0630 kg/ha): 7.5
- SAGPY herbicidal effect rating ([7]; 0.0313 kg/ha): 2.0
- SAGPY herbicidal effect rating ([7]; 0.0625 kg/ha): 4.0
- SAGPY herbicidal effect rating ([7]; 0.1250 kg/ha): 5.0
- SAGPY herbicidal effect rating ([7]; 0.2500 kg/ha): 7.0
- Preemergence herbicidal rating CASOB (CASOB (Sicklepod); rate 0.0156 kg/ha): 0.0
- Preemergence herbicidal rating CASOB (CASOB (Sicklepod); rate 0.0313 kg/ha): 0.0
- Preemergence herbicidal rating CASOB (CASOB (Sicklepod); rate 0.0625 kg/ha): 1.0
- Preemergence herbicidal rating CASOB (CASOB (Sicklepod); rate 0.1250 kg/ha): 1.0
- Preemergence herbicidal rating CASOB (CASOB (Sicklepod); rate 0.2500 kg/ha): 2.0
- ZEAMX herbicidal rating (ZEAMX (Corn, Field); rate 0.0158 kg/ha): 8.0
- ZEAMX herbicidal rating (ZEAMX (Corn, Field); rate 0.0315 kg/ha): 8.0
- ZEAMX herbicidal rating (ZEAMX (Corn, Field); rate 0.0630 kg/ha): 7.5
- Preemergence herbicidal rating GALAP (GALAP (Galium); rate 0.0156 kg/ha): 0.0
- Preemergence herbicidal rating GALAP (GALAP (Galium); rate 0.0313 kg/ha): 0.0
- Preemergence herbicidal rating GALAP (GALAP (Galium); rate 0.0625 kg/ha): 0.0
- Preemergence herbicidal rating GALAP (GALAP (Galium); rate 0.1250 kg/ha): 1.0
- Preemergence herbicidal rating GALAP (GALAP (Galium); rate 0.2500 kg/ha): 9.0

SMILES: CCOC(=O)CN1C(=O)CS(=O)(=O)C1=Nc1cc(-n2c(=O)cc(C(F)(F)F)n(C)c2=O)c(F)cc1Cl [Compound 46, 2-{{2-Chloro-5-[3,6-dihydro-3-methyl-2,6-dioxo-4-(trifluoromethyl)-1(2H)-pyrimidinyl]-4-fluoro-phenyl}imino}-4-oxo-3-thiazolidineacetic acid, ethyl ester, 1,1-dioxide]
- Herbicidal rating ECHORC ([1]; rate 0.0313 kg/ha, 3-4 weeks after treatment): 0.0
- Herbicidal rating ECHORC ([1]; rate 0.0625 kg/ha, 3-4 weeks after treatment): 0.0
- Herbicidal rating ECHORC ([1]; rate 0.1250 kg/ha, 3-4 weeks after treatment): 0.0
- Herbicidal rating ECHORC ([1]; rate 0.2500 kg/ha, 3-4 weeks after treatment): 4.0
- Preemergence herbicidal rating AMBEL (AMBEL (Ragweed, Common) [2]; rate 0.1250 kg/ha): 1.0
- Preemergence herbicidal rating AMBEL (AMBEL (Ragweed, Common) [2]; rate 0.2500 kg/ha): 1.0
- Preemergence herbicidal rating ABUTH (ABUTH (Velvetleaf); rate 0.1250 kg/ha): 9.0
- Preemergence herbicidal rating ABUTH (ABUTH (Velvetleaf); rate 0.2500 kg/ha): 9.0
- Postemergence herbicidal rating AMBEL (AMBEL (Ragweed, Common) [3]; Rate 0.0313 kg/ha): 0.0
- Postemergence herbicidal rating AMBEL (AMBEL (Ragweed, Common) [3]; Rate 0.0625 kg/ha): 5.0
- Preemergence herbicidal rating GLXMAW ([4]; rate 0.1250 kg/ha): 0.0
- Preemergence herbicidal rating GLXMAW ([4]; rate 0.2500 kg/ha): 0.0
- Herbicidal rating CYPSE (CYPSE (Flatsedge); 0.0313 kg/ha): 0.0
- Herbicidal rating CYPSE (CYPSE (Flatsedge); 0.0625 kg/ha): 0.0
- Herbicidal rating CYPSE (CYPSE (Flatsedge); 0.1250 kg/ha): 0.0
- Herbicidal rating CYPSE (CYPSE (Flatsedge); 0.2500 kg/ha): 6.0
- Postemergence herbicidal rating IPOHE ([5]; Rate 0.0313 kg/ha): 3.0
- Postemergence herbicidal rating IPOHE ([5]; Rate 0.0625 kg/ha): 9.0
- Preemergence herbicidal rating ECHCG (ECHCG (Barnyardgrass); rate 0.1250 kg/ha): 0.0
- Preemergence herbicidal rating ECHCG (ECHCG (Barnyardgrass); rate 0.2500 kg/ha): 0.0
- Preemergence herbicidal rating SETVI (SETVI (Foxtail, Green); rate 0.1250 kg/ha): 0.0
- Preemergence herbicidal rating SETVI (SETVI (Foxtail, Green); rate 0.2500 kg/ha): 0.0
- Postemergence herbicidal rating GLXMAW ([6]; Rate 0.0313 kg/ha): 5.0
- Postemergence herbicidal rating GLXMAW ([6]; Rate 0.0625 kg/ha): 5.5
- Herbicidal rating SAGPY ([7]; 0.0313 kg/ha): 0.0
- Herbicidal rating SAGPY ([7]; 0.0625 kg/ha): 0.0
- Herbicidal rating SAGPY ([7]; 0.1250 kg/ha): 0.0
- Herbicidal rating SAGPY ([7]; 0.2500 kg/ha): 3.0
- Preemergence herbicidal rating CASOB (CASOB (Sicklepod); rate 0.1250 kg/ha): 0.0
- Preemergence herbicidal rating CASOB (CASOB (Sicklepod); rate 0.2500 kg/ha): 0.0
- Postemergence herbicidal rating ZEAMX (ZEAMX (Corn, Field); Rate 0.0313 kg/ha): 4.5
- Postemergence herbicidal rating ZEAMX (ZEAMX (Corn, Field); Rate 0.0625 kg/ha): 5.0
- Preemergence herbicidal rating GALAP (GALAP (Galium); rate 0.1250 kg/ha): 0.0
- Preemergence herbicidal rating GALAP (GALAP (Galium); rate 0.2500 kg/ha): 0.0
